Measurements taken from patent US11981666B2, “GLP-1 receptor agonist and composition and use thereof” (HANGZHOU ZHONGMEIHUADONG PHARMACEUTICAL CO., LTD., priority 2021, dated 2024).
Where two headings read alike, the source gives them in different places.

Assays:
[1] = Metabolic stability in (human) liver microsomes; type: in vitro ADME; details: pH 7.4, test concentration 1 μM
Experimental: 3×NADPH stock solution (6 mM, 5 mg/mL) was prepared by dissolving NADPH in the buffer solution; 4. 30 μL of 1.5 μM additive solution containing 0.75 mg/mL microsomal solution was distributed to the plates designated for different time points (0, 5, 15, 30, 45 minutes); 5. at 0 min, 150 μL of ACN containing IS was added to the wells of the plate, followed by addition of 15 μL of NADPH stock solution (6 mM, step 3); 6. all other plates were pre-incubated at 37° C. for 5 minutes; 7. adding 15 μL of NADPH stock solution to the plate to start the reaction and timing; 8. 150 μL of ACN containing IS was added to the wells of the corresponding plates to stop the reaction at 5 min, 15 min, 30 min and 45 min, respectively; 9. after quenching, the plates were shaken on a shaker for 10 minutes (600 rpm/min) and then centrifuged at 6000 rpm for 15 minutes; 10. 80 μL of supernatant was transferred from each well to a 96-well sample plate containing 140 μL water for LC/MS analysis.
Detection method: LC-MS/MS-11 (8050), internal standard: tolbutamide; MS conditions: positive ion ESI for testosterone and test compound, and negative ion ESI for tolbutamide; Mobile phases: mobile phase A is 0.1% FA in water, and mobile phase B is 0.1% FA in ACN; Column and specification: ACQUITY UPLC HSS T3 1.8 um 2.1*50 mm.

Human GLP-1R = biological target: T1, Human GLP-1R (Homo sapiens, UniProt P43220); assay: GLP-1R agonistic activity assay (HTRF cAMP, 293A GFP-GLP-1R cells); type: cell-based; details: cAMP level, geometric mean
T1 construct: expressed in transfected cells
T1 sequence (P43220 24-463): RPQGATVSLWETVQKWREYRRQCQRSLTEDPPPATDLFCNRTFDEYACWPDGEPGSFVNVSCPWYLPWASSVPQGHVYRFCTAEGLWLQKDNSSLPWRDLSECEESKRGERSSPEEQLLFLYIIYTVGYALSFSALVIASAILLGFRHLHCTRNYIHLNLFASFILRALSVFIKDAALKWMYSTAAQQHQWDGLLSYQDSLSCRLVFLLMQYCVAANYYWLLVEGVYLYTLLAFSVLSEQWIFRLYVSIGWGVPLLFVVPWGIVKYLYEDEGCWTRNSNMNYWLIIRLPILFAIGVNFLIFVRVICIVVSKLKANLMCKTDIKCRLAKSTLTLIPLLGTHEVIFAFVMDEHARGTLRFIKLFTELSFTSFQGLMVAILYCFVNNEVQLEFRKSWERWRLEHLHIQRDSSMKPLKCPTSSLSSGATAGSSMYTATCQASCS
Excerpt: The method was a competitive immunoassay.

ICR mice [2] = assay: Toxicological experiment in mice, 14-day repeated oral gavage (toxicity study); type: in vivo
Experimental: (§1) Experimental method: 212 ICR mice (SPF grade), half male and half female. Animals in groups 1-5 were used for toxicity study, with 10 male and 10 female animals in each group; and animals in groups 6-9 were used for toxicokinetic study, with 14 male and 14 female animals in each group (2 of them were spare animals). […] Animals in Groups 1-9 were administered orally once a day for 14 consecutive days.

hERG potassium channels = biological target: T2, hERG potassium channels (Homo sapiens, UniProt Q12809); assay: Test for inhibition of hERG potassium channels (whole-cell patch clamp, HEK-293-hERG cells); type: cell-based
T2 construct: expressed in transfected cells; host or cells: HEK-293-hERG cells
T2 sequence (Q12809 whole entry): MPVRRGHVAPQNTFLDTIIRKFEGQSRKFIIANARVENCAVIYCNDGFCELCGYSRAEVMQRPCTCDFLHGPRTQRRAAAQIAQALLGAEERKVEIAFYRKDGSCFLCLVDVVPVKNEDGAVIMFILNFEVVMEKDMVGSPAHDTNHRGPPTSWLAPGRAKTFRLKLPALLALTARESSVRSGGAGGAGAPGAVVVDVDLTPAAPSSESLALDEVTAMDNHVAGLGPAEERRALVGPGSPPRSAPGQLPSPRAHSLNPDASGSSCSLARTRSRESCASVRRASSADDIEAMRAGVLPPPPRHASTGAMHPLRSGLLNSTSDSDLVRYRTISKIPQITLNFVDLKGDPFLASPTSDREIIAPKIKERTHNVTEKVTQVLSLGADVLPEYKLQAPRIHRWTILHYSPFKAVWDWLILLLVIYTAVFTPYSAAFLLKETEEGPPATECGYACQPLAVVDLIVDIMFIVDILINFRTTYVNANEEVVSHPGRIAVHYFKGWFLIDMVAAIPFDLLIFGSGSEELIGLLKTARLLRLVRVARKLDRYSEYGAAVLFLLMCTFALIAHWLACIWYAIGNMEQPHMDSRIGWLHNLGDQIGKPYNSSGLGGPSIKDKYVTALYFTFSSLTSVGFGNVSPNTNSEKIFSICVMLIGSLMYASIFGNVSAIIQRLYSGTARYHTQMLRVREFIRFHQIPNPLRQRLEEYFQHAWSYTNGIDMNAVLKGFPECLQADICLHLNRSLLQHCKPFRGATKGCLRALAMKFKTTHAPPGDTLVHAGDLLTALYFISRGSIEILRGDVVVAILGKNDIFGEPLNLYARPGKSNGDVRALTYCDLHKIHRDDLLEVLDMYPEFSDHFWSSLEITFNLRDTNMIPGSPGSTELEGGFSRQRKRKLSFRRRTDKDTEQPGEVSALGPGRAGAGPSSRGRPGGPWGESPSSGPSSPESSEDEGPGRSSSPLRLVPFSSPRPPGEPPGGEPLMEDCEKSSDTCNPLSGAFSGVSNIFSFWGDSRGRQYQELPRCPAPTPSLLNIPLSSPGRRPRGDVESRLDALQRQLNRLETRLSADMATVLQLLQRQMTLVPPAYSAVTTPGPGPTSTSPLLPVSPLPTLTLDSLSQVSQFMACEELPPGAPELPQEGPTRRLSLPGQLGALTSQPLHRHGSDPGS
Excerpt: Positive control: Amitriptyline hydrochloride or Terfenadine

ICR mice [3] = assay: Toxicological experiment in mice, 14-day repeated oral gavage (toxicokinetic study); type: in vivo, mouse; details: toxicokinetic study, male animals, 200 mg/kg oral once a day for 14 days
Experimental: as §1

[4] = as above; type: in vivo, mouse; details: ICR, mouse, po, 200 mg/kg, Day 14; for AUC(0-t): plasma, read-out: AUC(0-t), the systemic exposure (first value listed)
Experimental: as §1

Row | Structure (SMILES) | half-life at 1 μM [1] [h] | EC50 (Human GLP-1R) [nM] | other results
1 | O=C(O)c1ccc2nc(CN3CCC4c5nc(OCc6ccc(C7COC7)cc6F)ccc5COCC4C3)n(C[C@@H]3CCO3)c2c1 (single isomer, unassigned) [Compound 12-B] | 1.2 | 0.1 | –
2 | O=C(O)c1ccc2nc(Cc3ccc(-c4cccc(OCc5ccc(C6COC6)cc5F)n4)cc3F)n(C[C@@H]3CCO3)c2c1 [Compound 11, (S)-2-(2-fluoro-4-(6-((2-fluoro-4-(oxetan-3-yl)benzyl)oxy)pyridin-2-yl)benzyl)-1-(oxetan-2-ylmethyl)-1H-benzo[d]imidazole-6-carboxylic acid] | 1.05 | 0.011 | –
3 | COc1cc(C2COC2)ccc1COc1cccc(C2CCN(Cc3nc4ccc(C(=O)O)cc4n3C[C@@H]3CCO3)CC2)n1 [Compound 3, (S)-2-((4-(6-((2-methoxy-4-(oxetan-3-yl)benzyl)oxy)pyridin-2-yl)piperidin-1-yl)methyl)-1-(oxetan-2-ylmethyl)-1H-benzo[d]imidazole-6-carboxylic acid] | 2.56 | 0.03 | –
4 | O=C(O)c1ccc2nc(CN3CCC(c4cccc(OCc5ccc(C6(F)COC6)cc5F)n4)CC3)n(C[C@@H]3CCO3)c2c1 [Compound 15, (S)-2-((4-(6-((2-fluoro-4-(3-fluoroxetan-3-yl)benzyl)oxy)pyridin-2-yl)piperidin-1-yl)methyl)-1-(oxetan-2-ylmethyl)-1H-benzo[d]imidazole-6-carboxylic acid] | – | 0.08 | –
5 | O=C(O)c1ccc2nc(CN3CCC(c4cccc(OCc5ccc(C6COC6)cc5C(F)F)n4)CC3)n(C[C@@H]3CCO3)c2c1 [Compound 18, (S)-2-((4-(6-((2-(difluoromethyl)-4-(oxetan-3-yl)benzyl)oxy)pyridin-2-yl)piperidin-1-yl)methyl)-1-(oxetan-2-ylmethyl)-1H-benzo[d]imidazole-6-carboxylic acid] | – | 0.85 | –
6 | N#Cc1ccc(COc2cccc(C3CCN(Cc4nc5ccc(C(=O)O)cc5n4C[C@@H]4CCO4)CC3)n2)c(F)c1 [Compound 20, 2-[(4-{6-[(4-cyano-2-fluorophenyl)methoxy]pyridin-2-yl}piperidin-1-yl)methyl]-1-{[(2S)-oxetan-2-yl]methyl}-1H-1,3-benzodiazole-6-carboxylic acid, reference compound] | 1.87 | – | non-toxic response dose level (ICR mice [2]; ICR mice, gavage once a day for 14 consecutive days): less than 200 mg/kg; biochemical analysis of serum (ICR mice [2]; compared to vehicle control): increase in TBIL; clinical observation (ICR mice [2]; toxicity and toxicokinetic studies, 200 mg/kg): decreased activity, piloerection, cold skin when touched, arched-back posture and prone position were frequently observed; animals found dead (ICR mice [2]; toxicity study, male animals, 200 mg/kg oral once a day for 14 days): 2/10; IC50 (hERG potassium channels): 5800 nM; animals found dead (ICR mice [3]): 4/14; AUC(0-inf) ([4]; plasma of female animals): 331 µg·h/mL; Cmax ([4]; plasma of female animals): 104 µg/mL; AUC(0-inf) ([4]; plasma of male animals): 254 µg·h/mL; Cmax ([4]; plasma of male animals): 91 µg/mL; AUC(0-t) ([4]; female, plasma of female animals): 338 µg·h/mL; AUC(0-t) ([4]; male, plasma of male animals): 387 µg·h/mL
7 | N#CCC1(Cn2c(CN3CCC(c4cccc(OCc5ccc(C6COC6)cc5F)n4)CC3)nc3ccc(C(=O)O)cc32)CC1 [Compound 4, 1-((1-(cyanomethyl)cyclopropyl)methyl)-2-((4-(6-((2-fluoro-4-(oxetan-3-yl)benzyl)oxy)pyridin-2-yl)piperidin-1-yl)methyl)-1H-benzo[d]imidazole-6-carboxylic acid] | – | 0.08 | –
8 | O=C(O)c1ccc2nc(CN3CCC(c4cccc(OCc5ccc(C6COC6)cc5F)n4)CC3)n(CC3(CF)CC3)c2c1 [Compound 5, 2-((4-(6-((2-fluoro-4-(oxetan-3-yl)benzyl)oxy)pyridin-2-yl)piperidin-1-yl)methyl)-1-((1-(fluoromethyl)cyclopropyl)methyl)-1H-benzo[d]imidazole-6-carboxylic acid] | – | 0.003 | –

Now from value to molecule, other results behind:

Row | half-life at 1 μM [1] [h] | EC50 (Human GLP-1R) [nM] | Structure (SMILES) | other results
9 | – | 0.14 | O=C(O)c1ccc2nc(CN3CCC4c5nc(OCc6ccc(C7COC7)cc6Cl)ccc5COCC4C3)n(CC3CCO3)c2c1 (single isomer, unassigned) [Compound 17-B] | –
10 | – | 0.03 | O=C(O)c1ccc2nc(Cc3ccc(-c4cccc(OCc5ccc(C6COC6)cc5F)n4)cc3F)n(CC3(CF)CC3)c2c1 [Compound 10, 2-(2-fluoro-4-(6-((2-fluoro-4-(oxetan-3-yl)benzyl)oxy)pyridin-2-yl)benzyl)-1-((1-(fluoromethyl)cyclopropyl)methyl)-1H-benzo[d]imidazole-6-carboxylic acid] | –
11 | 0.717 | 0.7 | O=C(O)c1ccc2nc(CN3CCC(c4cccc(OCc5ccc(C6COC6)cn5)n4)CC3)n(C[C@@H]3CCO3)c2c1 [Compound 6, (S)-1-(oxetan-2-ylmethyl)-2-((4-(6-((5-(oxetan-3-yl)pyridin-2-yl)methoxy)pyridin-2-yl)piperidin-1-yl)methyl)-1H-benzo[d]imidazole-6-carboxylic acid] | –
12 | – | 0.02 | N#CCC1(Cn2c(Cc3ccc(-c4cccc(OCc5ccc(C6COC6)cc5F)n4)cc3F)nc3ccc(C(=O)O)cc32)CC1 [Compound 8, 1-((1-(cyanomethyl)cyclopropyl)methyl)-2-(2-fluoro-4-(6-((2-fluoro-4-(oxetan-3-yl)benzyl)oxy)pyridin-2-yl)benzyl)-1H-benzo[d]imidazole-6-carboxylic acid] | –
13 | – | 0.39 | O=C(O)c1ccc2nc(CN3CCC(c4cccc(OCc5ccc(C6COC6)cc5F)n4)CC3)n(CC3(F)CCC3)c2c1 [Compound 9, 2-((4-(6-((2-fluoro-4-(oxetan-3-yl)benzyl)oxy)pyridin-2-yl)piperidin-1-yl)methyl)-1-((1-fluorocyclobutyl)methyl)-1H-benzo[d]imidazole-6-carboxylic acid] | –
14 | 1.74 | 0.1 | O=C(O)c1ccc2nc(CN3CCC4=C(COCc5ccc(OCc6ccc(C7COC7)cc6F)nc54)C3)n(C[C@@H]3CCO3)c2c1 [Compound 7, (S)-2-((2-((2-fluoro-4-(oxetan-3-yl)benzyl)oxy)-5,8,10,11-tetrahydro-oxepino[4,3-b: 6,5-c′]dipyridin-9(7H)-yl)methyl)-1-(oxetan-2-ylmethyl)-1H-benzo[d]imidazole-6-carboxylic acid] | –
15 | 2.06 | 0.07 | O=C(O)c1ccc2nc(CN3CCC(c4cccc(OCc5ccc(C6COC6)cc5Cl)n4)CC3)n(C[C@@H]3CCO3)c2c1 [Compound 2, (S)-2-((4-(6-((2-chloro-4-(oxetan-3-yl)benzyl)oxy)pyridin-2-yl)piperidin-1-yl)methyl)-1-(oxetan-2-ylmethyl)-1H-benzo[d]imidazole-6-carboxylic acid] | –
